For experiment [1], the target named is T1, Human immunodeficiency virus type 1 reverse transcriptase (Human immunodeficiency virus 1, UniProt Q72547).
Experiment [2] has as its target Human immunodeficiency virus type 1 reverse transcriptase (Human immunodeficiency virus 1) (UniProt Q72547). The experiment can be described thus: Inhibition of HIV1 RT at 200 ug/ml.
Experiment [3] deals with T1, Human immunodeficiency virus type 1 reverse transcriptase. The experiment can be described thus: Inhibition of HIV1 RT using poly A oligo(dT) template primer.

Structures can show the parent of a compound that is named as a salt. A value given as a limit tells only on which side of the number the result lay.

Experimental findings from ChEMBL document CHEMBL1137798, “Evaluation of natural products as inhibitors of human immunodeficiency virus type 1 (HIV-1) reverse transcriptase” (J Nat Prod, 1991) are described below.

As usually defined, the IC50 is the concentration that inhibits the measured activity by half. As usually defined, the inhibition is the percentage by which the read-out fell short of the control. The low end stands for a response near the control, the high end for a response far below the control. In the case of `COc1cc2c(ccc3c4cc(OC)c(OC)cc4cnc23)cc1O`, the IC50 in experiment [1] (read-out: IC50 (converted)) was greater than 596 µM. Further, the inhibition in experiment [2] is less than 10%. The like results for `CC[C@H]1CN2CCc3cc(OC)c(OC)cc3[C@@H]2C[C@@H]1C[C@H]1NCCc2cc(O)c(OC)cc21` [CEPHAELINE DIHYDROCHLORIDE] were, in that order, greater than 371 µM and 20%. The like results for `C/C=C1/C[N+]2(C)CC[C@@]34c5ccccc5N[C@]32CCC1C4(CO)C(=O)OC` (stereo partly specified) [ECHITAMINE CHLORIDE] were, in that order, greater than 494 µM and less than 10%. `COc1cc2c(ccc3c4cc(OC)c(OC)cc4c[n+](C)c23)cc1O` [FAGARONINE]: the IC50 in experiment [1] (read-out: IC50 (converted)) was 46.7 µM; in experiment [3] it was 25.9 µM. `COc1ccc2c(c1O)-c1c(O)c(OC)cc3c1[C@H](C2)[N+](C)(C)CC3` [MAGNOFLORINE CHLORIDE]: the IC50 in experiment [1] (read-out: IC50 (converted)) is greater than 529 µM. The compound further registered an inhibition in experiment [2] of less than 10%. For the compound `COc1cc2c[n+](C)c3c4cc5c(cc4ccc3c2cc1OC)OCO5` [NITIDINE CHLORIDE], the IC50 was less than 130 µM in experiment [1] (read-out: IC50 (converted)) and 128 µM in experiment [3]. As for `CC[C@H]1CN2CCc3cc(OC)c(OC)cc3[C@@H]2C[C@@H]1CC1=NCCc2cc(O)c(OC)cc21` [PSYCHOTRINE], the IC50 in experiment [1] (read-out: IC50 (converted)) is greater than 430 µM. Also, the inhibition in experiment [2] came to 20%.

`COc1ccc2c(c1OC)CN1CCc3cc4c(cc3C1C2)OCO4` (stereo unspecified) [TETRAHYDROBERBERINE]: the IC50 in experiment [1] (read-out: IC50 (converted)) was greater than 589 µM. In experiment [2], this compound displayed an inhibition of 25%. The like results for `COc1cc2c(cc1OC)[C@@H]1Cc3ccc(OC)c(O)c3CN1CC2` [TETRAHYDROPALMATRUBINE] were, in that order, greater than 586 µM and 25%. With `CC1=C(O)C(=O)C=C2C1=CC=C1[C@@]2(C)CC[C@@]2(C)[C@@H]3C[C@@H](C)C(=O)[C@@H](O)[C@]3(C)CC[C@]12C` [TINGENIN B], in experiment [1] (read-out: IC50 (converted)), the IC50 was greater than 458 µM. Consider `C[C@H]1CC[C@]2(NC1)O[C@H]1C[C@H]3[C@@H]4CC[C@H]5C[C@@H](O[C@@H]6O[C@H](CO)[C@H](O[C@@H]7O[C@H](CO)[C@@H](O)[C@H](O[C@@H]8OC[C@@H](O)[C@H](O)[C@H]8O)[C@H]7O[C@@H]7O[C@H](CO)[C@@H](O)[C@H](O)[C@H]7O)[C@H](O)[C@H]6O)CC[C@]5(C)[C@H]4CC[C@]3(C)[C@H]1[C@@H]2C` [TOMATINE], for which the IC50 in experiment [1] (read-out: IC50 (converted)) is greater than 193 µM. On the same count and under the same terms, under `O[C@H]1[C@H]2[C@H](O)CCCN2C[C@H]1O` [TRIDOLGOSIR] stands greater than 1150 µM. In the case of `C[n+]1cccc(C(=O)[O-])c1` [TRIGONELLINE HYDROCHLORIDE], the IC50 in experiment [1] (read-out: IC50 (converted)) was greater than 1150 µM. Same read-out and setting: under `CC[C@H]1CN2CCc3cc(OC)c(OC)cc3[C@@H]2C[C@@H]1C[C@H]1NCCc2c1[nH]c1ccc(O)cc21` [TUBULOSINE] stands greater than 420 µM. For `COc1cc(O)c2c(=O)cc(-c3ccc(O)c(OC)c3)oc2c1` [VELUTIN], in experiment [1] (read-out: IC50 (converted)), the IC50 was greater than 636 µM. Same read-out and setting: under `C/C=C(/C)C(=O)O[C@H]1CC[C@@]2(C)[C@@H]3CC[C@H]4[C@]5(O)C[C@H](O)[C@@]6(O)[C@@H](CN7C[C@@H](C)CC[C@H]7[C@@]6(C)O)[C@]5(O)C[C@]42O[C@]13O` [VERATRINE] stands greater than 338 µM. As for `CC[C@]1(O)C[C@@H]2CN(CCc3c([nH]c4ccccc34)[C@@](C(=O)OC)(c3cc4c(cc3OC)N(C)[C@H]3[C@@](O)(C(=O)OC)[C@H](OC(C)=O)[C@]5(CC)C=CCN6CC[C@]43[C@@H]65)C2)C1` [VINBLASTINE], the IC50 in experiment [1] (read-out: IC50 (converted)) was greater than 247 µM. Still for that read-out and setting: under `C/C=C1\CN2[C@H]3C[C@@]45c6ccccc6N(C)[C@@H]4[C@@H]2C[C@@H]1[C@@]3(C(=O)OC)C5O` (stereo partly specified) [VINCAMAJINE] stands greater than 546 µM. Same read-out and setting: the result for `CC[C@]1(O)C[C@H]2CN(CCc3c([nH]c4ccccc34)[C@@](C(=O)OC)(c3cc4c(cc3OC)N(C=O)[C@H]3[C@@](O)(C(=O)OC)[C@H](OC(C)=O)[C@]5(CC)C=CCN6CC[C@]43[C@@H]65)C2)C1` [VINCRISTINE] reads greater than 242 µM.

Consider `CC[C@]12CN3CCc4c([nH]c5ccccc45)[C@@](C(=O)OC)(c4cc5c(cc4OC)N(C)[C@H]4[C@@](O)(C(=O)OC)[C@H](OC(C)=O)[C@]6(CC)C=CCN7CC[C@]54[C@@H]76)C[C@@H](C3)[C@H]1O2` [VINLEUROSINE SULFATE], for which the IC50 in experiment [1] (read-out: IC50 (converted)) is greater than 233 µM. The same measure, in the same setting: under `CC1(C)CC[C@]2(C)CC[C@]3(C)C(=CC[C@@H]4[C@@]5(C)CC[C@H](O)C(C)(C)[C@@H]5CC[C@]43C)[C@@H]2C1` [beta-AMYRIN] stands greater than 469 µM. RAUWOLFIA SERPENTINA registered an IC50 in experiment [1] greater than 200 µg/mL.
